pEC50: −log10 of the molar value. Positions of bridges follow the written chain, without caps; N, C: chain ends. Non-standard residues stand in square brackets, D forms with d. Residues, ends and D or L forms follow the SMILES beside them. Ala(cPent) = N[C@@H](CC1CCCC1)C(=O)O; Orn(iPr) = CC(C)NCCC[C@H](N)C(=O)O; Cha = N[C@@H](CC1CCCCC1)C(=O)O; Orn = NCCC[C@H](N)C(=O)O; Dab = NCC[C@H](N)C(=O)O; Ac4c = NC1(C(=O)O)CCC1
Each compound was assayed against T1, hV1a receptor (Homo sapiens, UniProt P37288) (assay: In vitro receptor assay: transcriptional reporter (luciferase) assay of agonist activity in HEK-293 cells transiently transfected with hV1a receptor). Settings: hV1a receptor in HEK-293 cells, 5 hours exposure, geometric mean of at least three independent experiments, nanomol/L, read-out: EC50 (median effective concentration).
T1 construct: expressed in transfected cells; host or cells: HEK-293
Format: cell-based
Method: Agonist activity of compounds on the hV1a receptor was determined in a transcriptional reporter assay by transiently transfecting a hV1a receptor expression DNA into HEK-293 cells in concert with a reporter DNA containing intracellular calcium responsive promoter elements regulating expression of firefly luciferase. See Boss, V., Talpade, D. J., Murphy, T. J. J. Biol. Chem. 1996, May 3; 271(18), 10429-10432 for further guidance on this assay.
The EC50 value given is the geometric mean expressed in nanomol/L (nM).

T1 sequence (P37288 whole entry): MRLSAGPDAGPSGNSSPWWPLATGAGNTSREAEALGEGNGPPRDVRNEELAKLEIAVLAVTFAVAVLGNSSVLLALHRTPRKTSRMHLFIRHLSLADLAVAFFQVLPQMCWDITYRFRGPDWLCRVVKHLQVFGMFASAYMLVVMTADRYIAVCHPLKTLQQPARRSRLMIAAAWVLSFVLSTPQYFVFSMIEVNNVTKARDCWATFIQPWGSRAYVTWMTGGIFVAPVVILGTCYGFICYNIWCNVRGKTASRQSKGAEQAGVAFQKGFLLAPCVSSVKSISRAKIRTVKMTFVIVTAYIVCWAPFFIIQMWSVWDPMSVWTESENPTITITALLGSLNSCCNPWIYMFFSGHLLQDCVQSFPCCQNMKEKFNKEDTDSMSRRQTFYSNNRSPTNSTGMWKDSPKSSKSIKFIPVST

pEC50 | SMILES
9.10 | CC[C@H](C)[C@@H]1NC(=O)[C@H](CC2CCCC2)NC(=O)[C@@H](N)CSSC[C@@H](C(=O)N2CCC[C@H]2C(=O)N[C@@H](CCN)C(=O)NCC(N)=O)NC(=O)[C@H](CC(N)=O)NC(=O)[C@H](CCC(N)=O)NC1=O [compound 2] (H-C[Ala(cPent)]IQNCP[Dab]G-NH2; disulfide 1-6)
9.12 | CC[C@H](C)[C@@H]1NC(=O)[C@H](CC2CCCCC2)NC(=O)[C@@H](N)CSSC[C@@H](C(=O)N2CCC[C@H]2C(=O)N[C@@H](CCCNC(C)C)C(=O)NCC(N)=O)NC(=O)[C@H](CC(N)=O)NC(=O)[C@H](CC(N)=O)NC1=O [compound 4, [Cha^2, Asn^4, Orn(i-Pr)^6]VT] (H-C[Cha]INNCP[Orn(iPr)]G-NH2; disulfide 1-6)
9.57 | CC[C@H](C)[C@@H]1NC(=O)[C@H](CC2CCCCC2)NC(=O)[C@@H](N)CSSC[C@@H](C(=O)N2CCC[C@H]2C(=O)N[C@@H](CCN)C(=O)NCC(N)=O)NC(=O)[C@H](CC(N)=O)NC(=O)[C@H](CCC(N)=O)NC1=O [compound 1] (H-C[Cha]IQNCP[Dab]G-NH2; disulfide 1-6; N-terminus and C-terminus assumed)
8.00 | CC[C@H](C)[C@@H]1NC(=O)[C@H](CC2CCCCC2)NC(=O)[C@@H](N)CSSC[C@@H](C(=O)N2CCC[C@H]2C(=O)N[C@@H](CCCN)C(=O)NCC(N)=O)NC(=O)[C@H](CC(N)=O)NC(=O)[C@H](CC(N)=O)NC1=O [compound 11] (H-C[Cha]INNCP[Orn]G-NH2; disulfide 1-6)
7.75 | CC[C@H](C)[C@@H]1NC(=O)[C@H](CC2CCCC2)NC(=O)[C@@H](N)CSSC[C@@H](C(=O)N2CCC[C@H]2C(=O)N[C@@H](CCN)C(=O)NCC(N)=O)NC(=O)[C@H](CC(N)=O)NC(=O)[C@H](CC(N)=O)NC1=O [compound 10] (H-C[Ala(cPent)]INNCP[Dab]G-NH2; disulfide 1-6)
9.03 | CC[C@H](C)[C@@H]1NC(=O)C2(CCC2)NC(=O)[C@@H](N)CSSC[C@@H](C(=O)N2CCC[C@H]2C(=O)N[C@@H](CCN)C(=O)NCC(N)=O)NC(=O)[C@H](CC(N)=O)NC(=O)[C@H](CCC(N)=O)NC1=O [compound 3, [AcBuc^2, Dbu^8]VT] (H-C[Ac4c]IQNCP[Dab]G-NH2; disulfide 1-6)

SMILES | pEC50
NCCCC[C@H](NC(=O)[C@@H]1CCCN1C(=O)[C@@H]1CSSC[C@H](NC(=O)CNC(=O)CNC(=O)CN)C(=O)N[C@@H](Cc2ccc(O)cc2)C(=O)N[C@@H](Cc2ccccc2)C(=O)N[C@@H](CCC(N)=O)C(=O)N[C@@H](CC(N)=O)C(=O)N1)C(=O)NCC(N)=O [terlipressin, reference compound] (H-GGGCYFQNCPKG-NH2; disulfide 4-9) | 7.09

Source: patent US8883965B2, “Compounds” (Ferring B.V., priority 2006, dated 2014)
